Assay results: patent US20110207783A1, “RENIN INHIBITORS” (priority 2007, published 2011)
pIC50: −log10 of the molar value.

Key:
Renin = target: T1, Renin (Homo sapiens, UniProt P00797); test: Renin QFRET; format: biochemical
T1 sequence (P00797 67-406): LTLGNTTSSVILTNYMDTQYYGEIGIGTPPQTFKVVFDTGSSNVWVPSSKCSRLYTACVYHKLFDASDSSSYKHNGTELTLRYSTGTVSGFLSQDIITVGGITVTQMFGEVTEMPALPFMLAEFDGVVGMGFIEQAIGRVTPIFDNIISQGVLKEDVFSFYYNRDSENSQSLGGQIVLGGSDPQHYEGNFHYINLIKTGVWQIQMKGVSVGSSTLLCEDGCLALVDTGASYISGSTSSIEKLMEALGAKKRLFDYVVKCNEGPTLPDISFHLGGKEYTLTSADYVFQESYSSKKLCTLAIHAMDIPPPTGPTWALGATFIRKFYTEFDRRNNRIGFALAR

renin in human plasma = target: T2, renin in human plasma (Homo sapiens, UniProt P00797); test: Inhibition of renin in human plasma; format: biochemical
T2 construct: from tissue; host or cells: human plasma from 10 normal donors, spiked with human recombinant renin (3 pM)
T2 sequence (P00797 67-406): T1 sequence (P00797 67-406)
Protocol: The enzymatic in vitro assay was performed in 384-well polypropylene plates (Nunc). The assay buffer consisted of PBS (Gibco BRL) including 1 mM EDTA and 0.1% BSA. The reaction mixture was composed of 80 μL per well of human plasma, enzyme, Ang I-antibodies mix and 5 μL of renin inhibitors in DMSO. The human plasma mix was premixed at 4° C. and consists of • human plasma from 10 normal donors • human recombinant renin (3 pM) • Ang I-antibodies. The mixtures were then incubated at 37° C. for 2 h.
To determine the enzymatic activity and its inhibition, the accumulated Ang I was detected by an enzyme immunoassay (EIA) in 384-well plates (Nunc). 10 μL of the reaction mixture or standards were transferred to immuno plates which were previously coated with a covalent complex of Ang I and bovine serum albumin (Ang I-BSA). 70 μL assay buffer were added and the plates were incubated at 4° C. overnight. The plates were washed 3 times with PBS including 0.01% Tween 20, and then incubated for 2 h at RT with an anti rabbit-peroxidase coupled antibody (WA 934, Amersham). […]

- pIC50 (Renin): 7.77
- pIC50 (renin in human plasma): 6.62
Structure (SMILES): COCCCc1ccc(Cl)c(CN(C(=O)C(CN)Cc2cccnc2N)C2CC2)c1 (centres unmarked) [Example 5, 3-amino-2-[(2-amino-3-pyridinyl)methyl]-N-({2-chloro-5-[3-(methyloxy)propyl]phenyl}methyl)-N-cyclopropylpropanamide]
